From EP0551675A1, “Oral hygiene compositions containing antiplaque agents” (UNILEVER N.V., priority 1991, dated 1993)
Converted amounts (≈) assume the structure as drawn. Where two headings read alike, the source gives them in different places.

Columns and labels:
Actinomyces naeslundii = assay: Antimicrobial activity determination (MIC); type: cell-based; settings: for MIC: read-out: Minimimum Inhibitory Concentrations
Protocol: (§1) The antimicrobial activity of the targeted agents was assessed by determining the minimum inhibitory concentration (MIC). Pure cultures of various strains of oral bacterial species as indicated in Table 3 were combined with serial dilutions of the targeted agents in beef heart infusion broth (BHI); starting bacterial concentrations were approximately 1.0 x 10E6 colony forming units (CFU) per ml. The mixtures were incubated aerobically at 37 degrees C and the optical density (540 nm, path length 1cm) of the cultures was measured at 0.0, 24.0 and 48.0 hr using Bausch and Lomb Spec 20 variable wavelength spectrophotometer.

Candida albicans = assay: Antimicrobial activity determination (MIC); type: cell-based; settings: for MIC: read-out: Minimimum Inhibitory Concentrations
Protocol: as §1

Neisseria subflava = assay: Antimicrobial activity determination (MIC); type: cell-based; settings: for MIC: read-out: Minimimum Inhibitory Concentrations
Protocol: as §1

Prevotella intermedius = assay: Antimicrobial activity determination (MIC); type: cell-based; settings: read-out: Minimimum Inhibitory Concentrations
Protocol: as §1

Streptococcus sanguis = assay: Antimicrobial activity determination (MIC); type: cell-based; settings: for MIC: Streptococcus, read-out: Minimimum Inhibitory Concentrations
Protocol: as §1

Streptococcus sobrinus = assay: Antimicrobial activity determination (MIC); type: cell-based; settings: for MIC: read-out: Minimimum Inhibitory Concentrations
Protocol: as §1

Veillonella dispar = assay: Antimicrobial activity determination (MIC); type: cell-based; settings: read-out: Minimimum Inhibitory Concentrations
Protocol: as §1

[1] = Krafft point of a 1% dispersion in water; type: physicochemical; settings: 1% dispersion of the surfactant in water
Protocol: The temperature at and above which surfactants begin to form micelles instead of precipitates is referred to as Krafft point (Tk) and at this temperature the solubility of a surfactant becomes equal to its CMC.
Krafft point was measured by preparing a 1% dispersion of the surfactant in water. If the surfactant was soluble at room temperature, the solution was cooled to 0°C. […] If it precipitated out, the solution was slowly warmed with stirring in a water bath. The temperature at which the precipitate dissolved was determined to be the Krafft point.
If the Krafft point was above room temperature, the solution was first heated rapidly to dissolve all the surfactant. It was then cooled until precipitation occurred, and was then slowly warmed to determine the Krafft point described above.

[2] = Foam height, Ross-Miles method; type: physicochemical; settings: 45°C, water with 120 ppm hardness
Protocol: Since most of the foaming data on surfactants is typically obtained by the Ross-Miles method (Ross, J. and Miles, G.D., am. Soc. for Testing Material Method D1173-53 Philadelphia, PA. (1953); Oil & Soap (1958) 62:1260) the foaming ability of these surfactants was also acquired using this method.
In the Ross-Miles method, 200 mL of a solution of surfactant contained in a pipette of specified dimensions with a 2.9-mm-i.d. orifice is allowed to fall 90 cm onto 50 mL of the same solution contained in a cylindrical vessel maintained at a given temperature (often 60°C) by means of a water jacket. The height of the foam produced in the cylindrical vessel is read immediately after all the solution has run out of the pipette (initial foam height) and then again after a given amount of time (generally, 5 min).
Using this method, the foam production (measured initially) and foam stability (the height after 10 minutes) are reported. […] The foam height is represented in millimeters (mm).

[3] = system: several species of oral bacteria; assay: MIC assays on several species of oral bacteria (stated in words); type: cell-based; settings: result in words
Protocol: as §1

Porphyromonas gingivalis = assay: Antimicrobial activity determination (MIC); type: cell-based; settings: read-out: Minimimum Inhibitory Concentrations
Protocol: as §1

[4] = system: Actinomyces naeslundii PK29 and Streptococcus sanguis G9B; assay: Bacterial coaggregation assay; type: cell-based; settings: for inhibition of coaggregation between A. naeslundii and S. sanguis: result in words
Protocol: A bacterial coaggregation assay was used to determine the ability of various amino sugars to interfere with lectin-mediated binding among various bacterial species. For instance, many Actinomyces naeslundii strains coaggregate with Streptococcus sanguis as a result of binding between a lectin produced by the A. naeslundii cells and β-galactose-containing structures on the surface of the streptococci. For the present assay, A. naeslundii PK29 and S. sanguis G9B were cultured overnight in a medium containing 2.5% tryptone, 1.5% yeast extract, 0.1% magnesium sulfate, and 1.0% fructose. The cells were then washed twice in a 1.0 mM potassium phosphate buffer (pH = 6.8) containing 1.0 mM calcium chloride, 0.1 mM magnesium chloride, and 50.0 mM potassium chloride (buffered KCl), after which they were resuspended in buffered KCl at an optical density (540 nm) of 1.5. The coaggregations were performed by combining 0.5 ml of each bacterial suspension with 0.2 ml of 5.0% bovine serum albumin (BSA) and 0.8 ml of an appropriate concentration of a targeted anti-plaque agent in 3.0 ml capped polystyrene cuvettes. The cuvettes (path length 1 cm) were gently inverted at room temperature, and the optical density (540 nm) was determined as a function of time (2.0 min intervals; 20 min). The instrument employed to measure optical density was a variable wavelength spectrophotometer (Gilson Response^(R) Spectrophotometer, bought from Gilson).
The activity of a tested compound was expressed as % inhibition relative to buffer controls (i.e., % inhibition = [1 - change in optical density (inhibitor)]/ change in optical density [control]) x 100 [formula] .
The ability of various aldobionamide compounds (prepared as described in Example 1) to target to β-galactose-specific binding proteins on A. naeslundii and thus to interfere with coaggregation interactions between A. naeslundii and S. sanquis was investigated. Coaggregation of Actinomyces naeslundii PK29 and Streptococcus sanguis G9B was performed as described in the Methods section (Bacterial Coaggregation Assay) above. % Inhibition was calculated as 1.0 - the change in optical density (540 nm) in the sample containing compound tested/the change in optical density in the coaggregation buffer control. The inhibitory activity of the antiplaque agents within the scope of the invention was compared to the inhibitory activity of lactobionic acid and N-alkyl gluconamides, which are not within the scope of the invention. The gluconamides were prepared analogously to N-alkyl lactobionamides from glucono-δ-lactone (Sigma Chemicals) and the requisite aliphatic amine.

[5] = BHI broth, aerobic, 37 degrees C
[6] = Prevotella intermedius, BHI broth, aerobic, 37 degrees C
[7] = Streptococcus sanguis, BHI broth, aerobic, 37 degrees C

Compound | MIC (Actinomyces naeslundii; [5]) [µg/mL] | MIC (Candida albicans; [5]) [µg/mL] | MIC (Neisseria subflava; [5]) [µg/mL] | MIC (Prevotella intermedius; [6]) [µg/mL] | MIC (Streptococcus sanguis; [7]) [µg/mL] | MIC (Streptococcus sobrinus; [5]) [µg/mL] | MIC (Veillonella dispar; [5]) [µg/mL] | further results
CCCCCCCCCCNC(=O)[C@H](O)[C@@H](O)[C@H](O[C@@H]1O[C@H](CO)[C@H](O)[C@H](O)[C@H]1O)[C@H](O)CO [Decyl lactobionamide, N-decyl lactobionamide] | > 500 | 500 (≈ 1000 µM) | 500 (≈ 1000 µM) | > 500 | > 500 | > 500 | 500 (≈ 1000 µM) | Krafft Point [1]: 0 °C; Initial Height ([2]; foam production, measured initially): 150 mm; After 10 Minutes ([2]; foam stability, height after 10 minutes): 5 mm
CCCCCCCCCCNC(=O)[C@H](O)[C@@H](O)[C@H](O)[C@H](O)CO [Decylgluconamide, reference compound] | > 5000 |  |  |  | > 5000 | > 5000 |  | 
O=C(O)[C@H](O)[C@@H](O)[C@H](O[C@@H]1O[C@H](CO)[C@H](O)[C@H](O)[C@H]1O)[C@H](O)CO [Dodecyl ammonium lactobionate, Dodecylammonium lactobionate] |  |  | 125 | 16 |  |  | 16 | Minimimum Inhibitory Concentrations (Actinomyces naeslundii; [5]): 0.003 % w/v; Minimimum Inhibitory Concentrations (Streptococcus sanguis; [7]): 0.006 % w/v; Minimimum Inhibitory Concentrations (Streptococcus sobrinus; [5]): 0.003 % w/v; anti-microbial activity [3]: significant anti-microbial activity
CCCCCCCCCCCCOC(=O)CCNC(=O)[C@H](O)[C@@H](O)[C@H](O[C@@H]1O[C@H](CO)[C@H](O)[C@H](O)[C@H]1O)[C@H](O)CO [Dodecyl-B-alanyl-lactobionamide, N-lactobionyl dodecyl β-alanate] | 125 (≈ 209 µM) | 500 (≈ 837 µM) | 500 (≈ 837 µM) |  | 125 (≈ 209 µM) | 1000 (≈ 1670 µM) |  | 
CCCCCCCCCCCCCCCCNC(=O)[C@H](O)[C@@H](O)[C@H](O[C@@H]1O[C@H](CO)[C@H](O)[C@H](O)[C@H]1O)[C@H](O)CO [Hexadecyl lactobionamide, N-hexadecyl lactobionamide] | 60 (≈ 103 µM) | 1000 (≈ 1720 µM) | 1000 (≈ 1720 µM) | > 500 | 125 (≈ 215 µM) | 1000 (≈ 1720 µM) | > 500 | MIC (Porphyromonas gingivalis; [5]): > 500 µg/mL
O=C(O)[C@H](O)[C@@H](O)[C@H](O[C@@H]1O[C@H](CO)[C@H](O)[C@H](O)[C@H]1O)[C@H](O)CO [Lactobionic acid, reference compound] |  |  |  |  |  |  |  | Minimimum Inhibitory Concentrations (Actinomyces naeslundii; [5]): >0.5 % w/v; Minimimum Inhibitory Concentrations (Streptococcus sanguis; [7]): >0.5 % w/v; Minimimum Inhibitory Concentrations (Streptococcus sobrinus; [5]): >0.5 % w/v
CCCCCCCCNC(=O)[C@H](O)[C@@H](O)[C@H](O[C@@H]1O[C@H](CO)[C@H](O)[C@H](O)[C@H]1O)[C@H](O)CO [Octyl lactobionamide, N-octyl lactobionamide] | > 5000 | > 1000 | > 1000 | > 1000 | > 1000 | > 5000 | > 1000 | MIC (Porphyromonas gingivalis; [5]): > 1000 µg/mL
CCCCCNC(=O)[C@H](O)[C@@H](O)[C@H](O[C@@H]1O[C@H](CO)[C@H](O)[C@H](O)[C@H]1O)[C@H](O)CO [Pentyl lactobionmamide, N-pentyl lactobionamide] | > 5000 | > 1000 | > 1000 | > 1000 | > 1000 | > 5000 | > 1000 | MIC (Porphyromonas gingivalis; [5]): > 1000 µg/mL
CCCNC(=O)[C@H](O)[C@@H](O)[C@H](O[C@@H]1O[C@H](CO)[C@H](O)[C@H](O)[C@H]1O)[C@H](O)CO [Propyl lactobionamide, N-propyl lactobionamide] | > 5000 | > 1000 | > 1000 | > 1000 | > 1000 | > 5000 | > 1000 | MIC (Porphyromonas gingivalis; [5]): > 1000 µg/mL
CCCCCCCCCCCCOS(=O)(=O)[O-].[Na+] [Sodium dodecyl sulfate, reference compound] |  |  |  |  |  |  |  | MIC (Actinomyces naeslundii): 8 µg/mL; MIC (Candida albicans): 60 µg/mL; MIC (Neisseria subflava): 8 µg/mL; MIC (Porphyromonas gingivalis): 2 µg/mL; MIC (Prevotella intermedius; Prevotella): 16 µg/mL; MIC (Streptococcus sanguis): 15 µg/mL; MIC (Streptococcus sobrinus): 60 µg/mL; MIC (Veillonella dispar): 60 µg/mL
O=C(O)[C@H](O)[C@@H](O)[C@H](O[C@@H]1O[C@H](CO)[C@H](O)[C@H](O)[C@H]1O)[C@H](O)CO [Tetradecyl ammonium Lactobionate, Tetradecylammonium lactobionate] |  | 120 |  |  |  |  |  | inhibition at 500 µM ([4]; Actinomyces naeslundii, 0.5 mMol/L, coaggregation of A. naeslundii PK29 and S. sanguis G9B, relative to buffer control, read-out: Percent Inhibition): 0%; inhibition at 700 µM ([4]; Actinomyces naeslundii, 0.7 mMol/L, coaggregation of A. naeslundii PK29 and S. sanguis G9B, relative to buffer control, read-out: Percent Inhibition): 11%; inhibition at 900 µM ([4]; Actinomyces naeslundii, 0.9 mMol/L, coaggregation of A. naeslundii PK29 and S. sanguis G9B, relative to buffer control, read-out: Percent Inhibition): 66%; inhibition at 1400 µM ([4]; Actinomyces naeslundii, 1.4 mMol/L, coaggregation of A. naeslundii PK29 and S. sanguis G9B, relative to buffer control, read-out: Percent Inhibition): 99%; inhibition at 1800 µM ([4]; Actinomyces naeslundii, 1.8 mMol/L, coaggregation of A. naeslundii PK29 and S. sanguis G9B, relative to buffer control, read-out: Percent Inhibition): 100%; inhibition of coaggregation between A. naeslundii and S. sanguis [4]: effective inhibitor of coaggregation; Minimimum Inhibitory Concentrations (Actinomyces naeslundii; [5]): 0.006 % w/v; Minimimum Inhibitory Concentrations (Streptococcus sanguis; [7]): 0.0016 % w/v; Minimimum Inhibitory Concentrations (Streptococcus sobrinus; [5]): 0.0125 % w/v; anti-microbial activity [3]: significant anti-microbial activity
CCCCCCCCCCCCCCNC(=O)[C@H](O)[C@@H](O)[C@H](O[C@@H]1O[C@H](CO)[C@H](O)[C@H](O)[C@H]1O)[C@H](O)CO [Tetradecyl lactobionamide, N-tetradecyl lactobionamide] | 15 (≈ 27.1 µM) | 30 (≈ 54.2 µM) | 60 (≈ 108 µM) | 8 (≈ 14.4 µM) | 30 (≈ 54.2 µM) | 125 (≈ 226 µM) | < 8 | Krafft Point [1]: 46 °C
CCCCCCCCCCCCCCN.Cl [tetradecyl ammonium hydrochloride, reference compound] |  |  |  |  |  |  |  | inhibition of coaggregation between A. naeslundii and S. sanguis [4]: inhibited coaggregation; anti-microbial activity [3]: had antibacterial activity
Tetradecyl-glycyl-lactobionamide |  |  |  |  |  |  |  | Minimimum Inhibitory Concentrations (Actinomyces naeslundii; [5]): 0.0008 % w/v; Minimimum Inhibitory Concentrations (Candida albicans; [5]): 0.05 % w/v; Minimimum Inhibitory Concentrations (Neisseria subflava; [5]): 0.05 % w/v; Minimimum Inhibitory Concentrations (Streptococcus sanguis; [7]): 0.003 % w/v; Minimimum Inhibitory Concentrations (Streptococcus sobrinus; [5]): 0.05 % w/v
